{"source": "paper PMC8217813", "about": "“Bridging Computational Vaccinology and Vaccine Development Through Systematic Identification, Characterization, and Downselection of Conserved and Variable Circumsporozoite Protein CD4 T Cell Epitopes From Diverse Plasmodium falciparum Strains” (Frontiers in Immunology, 2021)", "key": {"HLA-DRB1*0101": {"molecular_target": "T1, HLA-DRB1*0101 (Homo sapiens, UniProt P01903+P01911, A100R/D57E/F55L/F60I/F76Y/I96L/L162R/M171V/P40L/Q125E/R42F/V115G/Y59C)", "T1 construct": "purchased", "assay": "In vitro class II HLA binding competition assay", "conditions": "competition with fluorescent-labeled reference peptide, class II HLA monomers, 24-hours, test peptide 100,000 nM to 100 nM, time-resolved fluorescence", "in_short": "(§1)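 Test peptides at final concentrations of 100,000 nM to 100 nM competed with a fluorescent-labelled reference peptide for limiting class II HLA monomers over 24 hours. Complexes were captured on anti-HLA-DR plates and detected by europium time-resolved fluorescence. IC50 calculated from percent inhibition of reference binding.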"}, "HLA-DRB1*0301": {"molecular_target": "HLA-DRB1*0301 (Homo sapiens, UniProt P01903+P01911, A100K/A102G/A103R/A169T/F55Y/I96L/K41T/L162R/M171V/P40S/Q125H/Q178H/Q39Y/R42S/S66N/T106N/T262R/W38E/Y61H)", "assay": "In vitro class II HLA binding competition assay", "conditions": "competition with fluorescent-labeled reference peptide, class II HLA monomers, 24-hours, test peptide 100,000 nM to 100 nM, time-resolved fluorescence", "in_short": "as §1"}, "HLA-DRB1*0401": {"molecular_target": "T2, HLA-DRB1*0401 (Homo sapiens, UniProt P01903+P01911, A100K/A169T/F76Y/I96L/K127E/L162R/M171V/N62H/P40V/Q125Y/R42H/S133A/S149N/S66Y/V115G/V209L/W38E)", "T2 construct": "purchased", "assay": "In vitro class II HLA binding competition assay", "conditions": "competition with fluorescent-labeled reference peptide, class II HLA monomers, 24-hours, test peptide 100,000 nM to 100 nM, time-resolved fluorescence; read-out: IC50, DRB1*0401", "in_short": "as §1"}, "HLA-DRB1*0701": {"molecular_target": "HLA-DRB1*0701 (Homo sapiens, UniProt P01903+P01911, A100R/A102G/A103Q/D57E/D86V/E43K/F76Y/K127E/L162R/M171V/P40G/Q125H/Q99D/R33Q/R42Y/R54Q/S133A/S66F/T210M/V115G/Y107V/Y59L/Y89S)", "assay": "In vitro class II HLA binding competition assay", "conditions": "competition with fluorescent-labeled reference peptide, class II HLA monomers, 24-hours, test peptide 100,000 nM to 100 nM, time-resolved fluorescence; read-out: IC50, DRB1*0701", "in_short": "as §1"}, "HLA-DRB1*1101": {"molecular_target": "T3, HLA-DRB1*1101 (Homo sapiens, UniProt P01903+P01911, A100R/A169T/A87E/I96F/K41T/L162R/M171V/P40S/Q125H/Q178H/Q39Y/Q99D/R42S/S66Y/T262R/V115G/W38E)", "T3 construct": "purchased", "assay": "In vitro class II HLA binding competition assay", "conditions": "competition with fluorescent-labeled reference peptide, class II HLA monomers, 24-hours, test peptide 100,000 nM to 100 nM, time-resolved fluorescence", "in_short": "as §1"}, "HLA-DRB1*1301": {"molecular_target": "HLA-DRB1*1301 (Homo sapiens, UniProt P01903+P01911, A100E/A169T/K41T/L162R/M171V/P40S/Q125H/Q178H/Q39Y/Q99D/R42S/S66N/T262R/W38E/Y61H)", "assay": "In vitro class II HLA binding competition assay", "conditions": "competition with fluorescent-labeled reference peptide, class II HLA monomers, 24-hours, test peptide 100,000 nM to 100 nM, time-resolved fluorescence", "in_short": "as §1"}, "HLA-DRB1*1501": {"molecular_target": "T4, HLA-DRB1*1501 (Homo sapiens, UniProt P01903+P01911)", "T4 construct": "purchased", "assay": "In vitro class II HLA binding competition assay", "conditions": "competition with fluorescent-labeled reference peptide, class II HLA monomers, 24-hours, test peptide 100,000 nM to 100 nM, time-resolved fluorescence; read-out: IC50, DRB1*1501", "in_short": "as §1"}, "[1]": {"tested_on": "CD4 T cells co-cultured with autologous DCs from PBMCs", "format": "cell-based, human", "conditions": "positive = Stimulation Index ≥1.5-fold above baseline, 5 µg/mL peptide"}}, "note": "Peptide text beside a SMILES is read from it.", "data": [{"compound": "CC[C@H](C)[C@H](NC(=O)[C@H](CO)NC(=O)[C@H](CO)NC(=O)[C@H](CC(N)=O)NC(=O)[C@@H](NC(=O)[C@@H](NC(=O)[C@H](CC(N)=O)NC(=O)[C@H](Cc1ccccc1)NC(=O)[C@@H](NC(=O)[C@H](CO)NC(=O)[C@H](CO)NC(=O)[C@@H](N)CCCCN)C(C)C)C(C)C)C(C)C)C(=O)NCC(=O)N[C@@H](CC(C)C)C(=O)N[C@H](C(=O)N[C@@H](CCSC)C(=O)N[C@H](C(=O)N[C@@H](CC(C)C)C(=O)N[C@@H](CO)C(N)=O)C(C)C)[C@@H](C)CC", "note": "[Cluster C4] (H-KSSVFNVVNSSIGLIMVLS-NH2)", "values": [{"measurement": "IC50", "setting": "HLA-DRB1*0101", "result": 526, "unit": "nM"}, {"measurement": "IC50", "setting": "HLA-DRB1*0301", "result": 1100, "unit": "nM"}, {"measurement": "IC50", "setting": "HLA-DRB1*0401", "result": 1690, "unit": "nM"}, {"measurement": "IC50", "setting": "HLA-DRB1*0701", "result": 2070, "unit": "nM"}, {"measurement": "IC50", "setting": "HLA-DRB1*1101", "result": 1040, "unit": "nM"}, {"measurement": "IC50", "setting": "HLA-DRB1*1301", "result": 1200, "unit": "nM"}, {"measurement": "IC50", "setting": "HLA-DRB1*1501", "result": 12.3, "unit": "µM"}, {"measurement": "Percentage of donors demonstrating IFN-γ responses, DR1", "setting": "[1]; DR1 donors N=5, ICCS after 14-day co-culture", "result": 20, "unit": "%"}, {"measurement": "Percentage of donors demonstrating IL-2 responses, DR1", "setting": "[1]; DR1 donors N=5, ICCS", "result": 0, "unit": "%"}, {"measurement": "Percentage of donors demonstrating IL-4 responses, DR1", "setting": "[1]; DR1 donors N=5, ICCS", "result": 0, "unit": "%"}, {"measurement": "Percentage of donors demonstrating IL-10 responses, DR1", "setting": "[1]; DR1 donors N=5, ICCS", "result": 20, "unit": "%"}, {"measurement": "Percentage of donors demonstrating TNF-α responses, DR1", "setting": "[1]; DR1 donors N=5, ICCS", "result": 0, "unit": "%"}, {"measurement": "Percentage of donors demonstrating IFN-γ responses, DR3", "setting": "[1]; DR3 donors N=6, ICCS after 14-day co-culture", "result": 17, "unit": "%"}, {"measurement": "Percentage of donors demonstrating IL-2 responses, DR3", "setting": "[1]; DR3 donors N=6, ICCS", "result": 0, "unit": "%"}, {"measurement": "Percentage of donors demonstrating IL-4 responses, DR3", "setting": "[1]; DR3 donors N=6, ICCS", "result": 0, "unit": "%"}, {"measurement": "Percentage of donors demonstrating IL-10 responses, DR3", "setting": "[1]; DR3 donors N=6, ICCS", "result": 0, "unit": "%"}, {"measurement": "Percentage of donors demonstrating TNF-α responses, DR3", "setting": "[1]; DR3 donors N=6, ICCS", "result": 0, "unit": "%"}, {"measurement": "Percentage of donors demonstrating IFN-γ responses, DR4", "setting": "[1]; DR4 donors N=10, ICCS after 14-day co-culture", "result": 30, "unit": "%"}, {"measurement": "Percentage of donors demonstrating IL-2 responses, DR4", "setting": "[1]; DR4 donors N=10, ICCS", "result": 0, "unit": "%"}, {"measurement": "Percentage of donors demonstrating IL-4 responses, DR4", "setting": "[1]; DR4 donors N=10, ICCS", "result": 40, "unit": "%"}, {"measurement": "Percentage of donors demonstrating IL-10 responses, DR4", "setting": "[1]; DR4 donors N=10, ICCS", "result": 20, "unit": "%"}, {"measurement": "Percentage of donors demonstrating TNF-α responses, DR4", "setting": "[1]; DR4 donors N=10, ICCS", "result": 10, "unit": "%"}, {"measurement": "Percentage of donors demonstrating IFN-γ responses, DR7", "setting": "[1]; DR7 donors N=4, ICCS after 14-day co-culture", "result": 0, "unit": "%"}, {"measurement": "Percentage of donors demonstrating IL-2 responses, DR7", "setting": "[1]; DR7 donors N=4, ICCS", "result": 0, "unit": "%"}, {"measurement": "Percentage of donors demonstrating IL-4 responses, DR7", "setting": "[1]; DR7 donors N=4, ICCS", "result": 25, "unit": "%"}, {"measurement": "Percentage of donors demonstrating IL-10 responses, DR7", "setting": "[1]; DR7 donors N=4, ICCS", "result": 0, "unit": "%"}, {"measurement": "Percentage of donors demonstrating TNF-α responses, DR7", "setting": "[1]; DR7 donors N=4, ICCS", "result": 0, "unit": "%"}, {"measurement": "Percentage of donors demonstrating IFN-γ responses, DR8", "setting": "[1]; DR8 donors N=4, ICCS after 14-day co-culture", "result": 25, "unit": "%"}, {"measurement": "Percentage of donors demonstrating IL-2 responses, DR8", "setting": "[1]; DR8 donors N=4, ICCS", "result": 25, "unit": "%"}, {"measurement": "Percentage of donors demonstrating IL-4 responses, DR8", "setting": "[1]; DR8 donors N=4, ICCS", "result": 25, "unit": "%"}, {"measurement": "Percentage of donors demonstrating IL-10 responses, DR8", "setting": "[1]; DR8 donors N=4, ICCS", "result": 25, "unit": "%"}, {"measurement": "Percentage of donors demonstrating TNF-α responses, DR8", "setting": "[1]; DR8 donors N=4, ICCS", "result": 25, "unit": "%"}, {"measurement": "Percentage of donors demonstrating IFN-γ responses, DR9", "setting": "[1]; DR9 donors N=4, ICCS after 14-day co-culture", "result": 0, "unit": "%"}, {"measurement": "Percentage of donors demonstrating IL-2 responses, DR9", "setting": "[1]; DR9 donors N=4, ICCS", "result": 25, "unit": "%"}, {"measurement": "Percentage of donors demonstrating IL-4 responses, DR9", "setting": "[1]; DR9 donors N=4, ICCS", "result": 25, "unit": "%"}, {"measurement": "Percentage of donors demonstrating IL-10 responses, DR9", "setting": "[1]; DR9 donors N=4, ICCS", "result": 0, "unit": "%"}, {"measurement": "Percentage of donors demonstrating TNF-α responses, DR9", "setting": "[1]; DR9 donors N=4, ICCS", "result": 25, "unit": "%"}, {"measurement": "Percentage of donors demonstrating IFN-γ responses, DR11", "setting": "[1]; DR11 donors N=4, ICCS after 14-day co-culture", "result": 50, "unit": "%"}, {"measurement": "Percentage of donors demonstrating IL-2 responses, DR11", "setting": "[1]; DR11 donors N=4, ICCS", "result": 25, "unit": "%"}, {"measurement": "Percentage of donors demonstrating IL-4 responses, DR11", "setting": "[1]; DR11 donors N=4, ICCS", "result": 0, "unit": "%"}, {"measurement": "Percentage of donors demonstrating IL-10 responses, DR11", "setting": "[1]; DR11 donors N=4, ICCS", "result": 0, "unit": "%"}, {"measurement": "Percentage of donors demonstrating TNF-α responses, DR11", "setting": "[1]; DR11 donors N=4, ICCS", "result": 25, "unit": "%"}, {"measurement": "Percentage of donors demonstrating IFN-γ responses, DR13", "setting": "[1]; DR13 donors N=7, ICCS after 14-day co-culture", "result": 29, "unit": "%"}, {"measurement": "Percentage of donors demonstrating IL-2 responses, DR13", "setting": "[1]; DR13 donors N=7, ICCS", "result": 43, "unit": "%"}, {"measurement": "Percentage of donors demonstrating IL-4 responses, DR13", "setting": "[1]; DR13 donors N=7, ICCS", "result": 14, "unit": "%"}, {"measurement": "Percentage of donors demonstrating IL-10 responses, DR13", "setting": "[1]; DR13 donors N=7, ICCS", "result": 0, "unit": "%"}, {"measurement": "Percentage of donors demonstrating TNF-α responses, DR13", "setting": "[1]; DR13 donors N=7, ICCS", "result": 43, "unit": "%"}, {"measurement": "Percentage of donors demonstrating IFN-γ responses, DR15", "setting": "[1]; DR15 donors N=7, ICCS after 14-day co-culture", "result": 0, "unit": "%"}, {"measurement": "Percentage of donors demonstrating IL-2 responses, DR15", "setting": "[1]; DR15 donors N=7, ICCS", "result": 0, "unit": "%"}, {"measurement": "Percentage of donors demonstrating IL-4 responses, DR15", "setting": "[1]; DR15 donors N=7, ICCS", "result": 29, "unit": "%"}, {"measurement": "Percentage of donors demonstrating IL-10 responses, DR15", "setting": "[1]; DR15 donors N=7, ICCS", "result": 0, "unit": "%"}, {"measurement": "Percentage of donors demonstrating TNF-α responses, DR15", "setting": "[1]; DR15 donors N=7, ICCS", "result": 14, "unit": "%"}]}]}
